Where two headings read alike, the source gives them in different places.

For series [1], the system named is Ebola VLP entry into HeLa cells. The series can be described thus: microbe, parasite or virus in culture. The note with it: for IC90: read-out: Block Ebola VLP entry IC90; for Emax: read-out: Block Ebola VLP entry Max. Inh. Type of series: cell-based, Ebola virus.
Another series can be described thus: in vitro. Conditions: human, Cytotoxicity IC50.
The test system of series [2] is Ebola virus infection. Conditions: in vivo; cited from earlier work.
Series [3] concerns Ebola virus infection. The note with it: cited from earlier work.
The mark [4] stands for this setting: read-out: Block Ebola VLP entry IC50.
The mark [5] stands for this setting: Zaire ebolavirus, HeLa, read-out: Block Ebola VLP entry IC50.
Setting [6] is: Zaire ebolavirus, HeLa, read-out: IC50 of blocking Ebola VLP entry.

Take `CCN(CC)CCOc1ccc(C(=C(Cl)c2ccccc2)c2ccccc2)cc1` [Clomiphene]: in series [1] (Zaire ebolavirus, HeLa), the IC90 came to 5.34 µM and the Emax turned out to be 92%. The compound further came in with an IC50 in the series “in vitro” of 91.4 µM. Also, the “Efficacy in a mouse infection model” value in the series with Ebola virus infection [2] is recorded as “effective in a mouse infection model”. The “Block of Ebola virus infection” value in the series on Ebola virus infection [3] was “effectively block Ebola virus infection”.

Regarding `COc1cccc2c1C(=O)c1c(O)c3c(c(O)c1C2=O)C[C@@](O)(C(C)=O)C[C@@H]3O[C@H]1C[C@H](N)[C@H](O)[C@H](C)O1` [Daunorubicin], in series [1], the “Block Ebola VLP entry Max. Inh.” value was 96%, the “Selectivity Index” value stood at 103 fold and the IC90 amounted to 4.45 µM. For the same compound, the IC50 in series [1] (setting [4]) amounted to 2.43 µM. In the series on HeLa cells (human), this compound came in with an IC50 of 250 µM.

`C[C@H]1O[C@@H](O[C@H]2[C@@H](O)C[C@H](O[C@H]3[C@@H](O)C[C@H](O[C@H]4CC[C@@]5(C)[C@H](CC[C@@H]6[C@@H]5C[C@@H](O)[C@]5(C)[C@@H](C7=CC(=O)OC7)CC[C@]65O)C4)O[C@@H]3C)O[C@@H]2C)C[C@H](O)[C@@H]1O` [Digoxin]: in series [1], the “Selectivity Index” value stood at 327 fold. For the same compound, the results for the IC50 (in series [1] (setting [5]); in series [1] (setting [6]); in “in vitro”) were 0.763 µM, 0.76 µM and 250 µM, respectively. In addition, in series [1] (Zaire ebolavirus, HeLa), the IC90 stood at 3.45 µM. Also, the Emax in series [1] (Zaire ebolavirus, HeLa) was 68%. For the same compound, the “Cytotoxicity” value in the series with HeLa cells is recorded as “cytotoxicity at a compound concentration similar to that effective in blocking Ebola VLP entry”.

On to `N=C(N)NN=C(/C=C/c1ccc([N+](=O)[O-])o1)/C=C/c1ccc([N+](=O)[O-])o1` [Nitrovin], for which, in series [1], the “Block Ebola VLP entry Max. Inh.” value stood at 95% and the IC90 is 7.14 µM. For the same compound, the IC50 in series [1] (setting [4]) is 4.85 µM. In the series on HeLa cells, this compound gave an IC50 above 500 µM.

With `CN(C)CCOc1ccc(/C(=C(/CCCl)c2ccccc2)c2ccccc2)cc1` [Toremifene], the “Selectivity Index” value in series [1] came to 316 fold. For the same compound, the IC50 in series [1] (setting [5]) is 0.566 µM; in series [1] (setting [6]), 0.56 µM; in series [1] (read-out: IC50 of blocking Ebola VLP entry), 0.55 µM; in the series “in vitro”, 180 µM. The 90% effect concentration (IC90) in series [1] (Zaire ebolavirus, HeLa) stood at 3.73 µM. Also, the Emax in series [1] (Zaire ebolavirus, HeLa) turned out to be 98%. For the same compound, the “Efficacy in a mouse infection model” value in the series with Ebola virus infection [2] is recorded as “effective in a mouse infection model”. For the same compound, the “Block of Ebola virus infection” value in the series with Ebola virus infection [3] is recorded as “effectively block Ebola virus infection”.

As for `CN1CCN(CCCN2c3ccccc3Sc3ccc(C(F)(F)F)cc32)CC1` [Trifluoperazine], in series [1], the “Selectivity Index” value was found to be 21 fold. Also, the IC50 in series [1] (setting [5]) came out at 4.48 µM; in series [1] (setting [6]), 4.4 µM; in the series with HeLa cells (human), 97 µM. In addition, the IC90 in series [1] (Zaire ebolavirus, HeLa) was 12 µM. Further, in series [1] (Zaire ebolavirus, HeLa), the Emax worked out at 97%.

`CC[C@]1(O)C[C@H]2CN(CCc3c([nH]c4ccccc34)[C@@](C(=O)OC)(c3cc4c(cc3OC)N(C=O)[C@H]3[C@@](O)(C(=O)OC)[C@H](OC(C)=O)[C@]5(CC)C=CCN6CC[C@]43[C@@H]65)C2)C1` [Vincristine]: the “Selectivity Index” value in series [1] was above 3554 fold. The IC50 in series [1] (setting [5]) was 0.141 µM; in series [1] (setting [6]), 0.14 µM; in “in vitro”, above 500 µM. The IC90 in series [1] (Zaire ebolavirus, HeLa) is 0.258 µM. Also, the Emax in series [1] (Zaire ebolavirus, HeLa) came to 83%.

For the compound `CCC1=C[C@@H]2CN(C1)Cc1c([nH]c3ccccc13)[C@@](C(=O)OC)(c1cc3c(cc1OC)N(C)[C@H]1[C@@](O)(C(=O)OC)[C@H](OC(C)=O)[C@]4(CC)C=CCN5CC[C@]31[C@@H]54)C2` [Vinorelbine/Navelbine, Vinorelbine], in series [1], the “Selectivity Index” value is listed as above 7546 fold. Besides, the IC50 in series [1] (setting [5]) is 0.066 µM. Further, in series [1] (Zaire ebolavirus, HeLa), the IC90 was 0.19 µM and the Emax worked out at 90%. The same compound showed an IC50 in “in vitro” above 500 µM.

Consider Spiramycin, for which, in series [1], the “Block Ebola VLP entry Max. Inh.” value was determined as 92% and the IC90 was determined as 11.7 µM. The same compound had an IC50 in the series on HeLa cells above 500 µM.

The record behind these values is publication PMC4317638 (Emerging Microbes & Infections, 2014).
